Measurements as given in patent US20090192185A1, “MEDICAL PRODUCT” (Boehringer Ingelheim International GmbH, priority 2003, published 2009).

Assays:
[1] = bronchodilator; cited from earlier work
[2] = Stability tests of FPD at 40° C. and 75% Rh (tests S1-S5, HBS1-HBS3), out of […]; format: physicochemical; settings: conclusion of the tests

Row | SMILES | Duration of action [1] | Sensitivity to moisture [2]
1 | C[N+]1(C)[C@@H]2C[C@@H](OC(=O)C(O)(c3cccs3)c3cccs3)C[C@H]1[C@@H]1O[C@@H]12 [tiotropium bromide] | up to 24 hours | –
2 | C[N+]1(C)[C@@H]2C[C@@H](OC(=O)C(O)(c3cccs3)c3cccs3)C[C@H]1[C@@H]1O[C@@H]12 [tiotropium] | – | extremely sensitive to moisture
